Where two headings read alike, the source gives them in different places. Values belong to the molecule of their own block, whether it stands above or below them.
What was measured:
cyclooxygenase 2 = target: T1, cyclooxygenase 2 (Homo sapiens, UniProt P35354)
T1 sequence (P35354 18-604): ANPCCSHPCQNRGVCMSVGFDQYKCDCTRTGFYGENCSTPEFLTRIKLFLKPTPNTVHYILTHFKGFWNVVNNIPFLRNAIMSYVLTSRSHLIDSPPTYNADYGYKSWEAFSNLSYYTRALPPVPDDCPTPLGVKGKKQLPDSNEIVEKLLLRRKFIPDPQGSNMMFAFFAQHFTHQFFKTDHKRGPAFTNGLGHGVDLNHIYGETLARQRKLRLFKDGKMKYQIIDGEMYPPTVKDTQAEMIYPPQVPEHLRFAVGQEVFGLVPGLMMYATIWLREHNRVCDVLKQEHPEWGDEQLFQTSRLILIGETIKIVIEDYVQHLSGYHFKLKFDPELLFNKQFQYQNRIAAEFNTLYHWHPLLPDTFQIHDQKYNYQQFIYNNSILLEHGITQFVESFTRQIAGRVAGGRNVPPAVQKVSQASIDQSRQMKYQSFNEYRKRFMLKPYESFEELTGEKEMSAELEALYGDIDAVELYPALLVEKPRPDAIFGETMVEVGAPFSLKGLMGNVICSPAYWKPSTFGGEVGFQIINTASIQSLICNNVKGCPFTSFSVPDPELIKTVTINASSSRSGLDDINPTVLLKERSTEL
Protocol: (§1) (Specific Inhibitory Effect on Cyclooxygenase)
(§2) After the incubation, 2 μl of a 5 mM solution of arachidonic acid (dissolved in ethanol) were added (end concentration: 100 μM), followed by incubation for additional 5 minutes. After the incubation for 5 minutes, 10 μl of a 22 mM solution of ferrous chloride were added, and the resultant mixture was cooled down to 0° C. to stop the reaction. After stopping the reaction, the reaction mixture was centrifuged at 10,000×g for 5 minutes to determine the amount of prostaglandin E2 in the supernatant liquid thereof in accordance with the enzyme immunoassay. The cyclooxygenase-inhibiting effect of each test agent was determined by the average value of the amounts of prostaglandin E2 produced, which were obtained by repeating the above process twice, and the amount of prostaglandin E2 produced by using DMSO in place of the test agent to conduct the same treatment as described above.

cyclooxygenase 1 = target: T2, cyclooxygenase 1 (Ovis aries, UniProt P05979); test: biochemical; settings: for Inhibitory effect on cyclooxygenase 1 (in words): 0.01-100 μM
T2 sequence (P05979 25-600): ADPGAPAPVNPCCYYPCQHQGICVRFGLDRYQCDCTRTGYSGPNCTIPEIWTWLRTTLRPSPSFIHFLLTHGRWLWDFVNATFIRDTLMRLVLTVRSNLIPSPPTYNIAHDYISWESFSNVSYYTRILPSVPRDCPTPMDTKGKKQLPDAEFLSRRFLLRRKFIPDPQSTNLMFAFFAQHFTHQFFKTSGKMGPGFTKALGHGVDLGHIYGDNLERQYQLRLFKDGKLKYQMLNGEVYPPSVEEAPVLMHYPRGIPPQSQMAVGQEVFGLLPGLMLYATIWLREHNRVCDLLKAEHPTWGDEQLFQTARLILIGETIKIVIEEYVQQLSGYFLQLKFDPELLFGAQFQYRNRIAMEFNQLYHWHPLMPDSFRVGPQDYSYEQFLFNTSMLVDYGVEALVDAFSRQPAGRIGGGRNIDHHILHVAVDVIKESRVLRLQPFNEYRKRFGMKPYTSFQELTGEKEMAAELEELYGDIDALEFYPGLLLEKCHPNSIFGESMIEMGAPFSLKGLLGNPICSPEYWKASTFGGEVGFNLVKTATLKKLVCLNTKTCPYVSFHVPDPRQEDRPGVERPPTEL
Protocol: as §1, §2

[1] = test system: Production of Thromboxane B2 in Platelet; test: Effect on production of thromboxane B2 in platelet; format: cell-based, rabbit; settings: for inhibitory effect on the production of thromboxane B2 (in words): 0.001-100 μM; for inhibition at 0.001 µM / inhibition at 0.01 µM / inhibition at 0.1 µM / inhibition at 1 µM / inhibition at 10 µM / inhibition at 100 µM: Oryctolagus cuniculus, Platelet, rabbit platelets, read-out: Percent inhibition of thromboxane B2
Protocol: (Effect of 4'-Hydroxydiclofenac on Production of Thromboxane B2 in Platelet)
Fresh blood [adding 1 volume of ACD (acid-citrate dextrose; consisting of 65 mM citric acid, 85 mM sodium citrate and 110 mM glucose) to 9 volumes of the blood] collected from the heart of a rabbit under Nembutal anesthesia was centrifuged at 200 ×g for 10 minutes to collect the supernatant liquid thereof. The supernatant liquid was centrifuged at 700 ×g for 10 minutes, and precipitated platelets were suspended in an isotonic trishydrochloric acid buffer solution [50 mM tris(hydroxymethyl)aminomethane, 150 mM NaCl, 1 mM EDTA (ethylenediaminetetraacetic acid) and 5 mM glucose; pH: 7.2]. The suspension was further centrifuged at 700 ×g for 10 minutes and washed. […] The thus-adjusted platelet suspension was poured in 1-ml portions into test tubes. […] After the incubation, 10 μl (end concentration: 2 mM) of 200 mM CaCl2 and 5 μl (end concentration: 5 μM) of 1 mM arachidonic acid were added, followed by incubation for additional 5 minutes. After the incubation, the test tube was transferred to an ice bath to stop the reaction. The test tube was centrifuged at 1,500 ×g and 4° C. for 10 minutes. After the supernatant liquid thereof was filtered through a membrane filter (pore size: 0.22 μm, MILLIPORE), the amount of thromboxane B2 in the filtrate was determined in accordance with the enzyme immunoassay. The effect of each test agent on the production of thromboxane B2 in the platelet was determined by the average value of the amounts of thromboxane B2 produced, which were obtained by repeating the above process 3 times, and the amount of thromboxane B2 produced by using DMSO in place of the test agent to conduct the same treatment as described above.

[2] = test system: Production of Prostaglandin E2 by Stimulation of Human Synovial Cell by IL-1β; test: Effect on production of prostaglandin E2 by stimulation of human synovial cell by IL-1β; format: cell-based; settings: for inhibition at 0.001 µM / inhibition at 0.01 µM / inhibition at 0.1 µM / inhibition at 1 µM / inhibition at 10 µM / inhibition at 100 µM: Synovial cell, human synovial cells, IL-1β, 22 hours, read-out: Percent inhibition of prostaglandin E2
Protocol: (Effect of 4'-Hydroxydiclofenac on Production of Prostaglandin E2 by Stimulation of Human Synovial Cell by IL-1β)
Synovial tissue obtained from a patient suffering from chronic articular rheumatism was placed in a Petri dish, cut and shredded, to which a 0.2% solution of collagenase was added. The mixture was left over for 2 hours under conditions of 5% CO2 and 37° C. An equiamount of a 0.25% solution of trypsin was further added, and the resultant mixture was left over for 2 hours. After cells isolated were collected and centrifuged (170 ×g, 10 minutes) to remove the supernatant liquid thereof, a medium [obtained by adding 10% FCS (fetal calf serum), 2 mM glutamine, 100 U/ml of penicillin, 100 μg/ml of streptomycin and 25 ng/ml of Fungizone to DMEM (Dulbecco modified minimum essential medium)] was added to the cells to wash them once. The cells were suspended in the medium, and the suspension was poured into a Petri dish and cultured under conditions of 5% CO2 and 37° C. Cells adhered to the bottom of the Petri dish were provided as synovial cells. The cells (1×10^5 cells/ml) were poured in 1-ml portions into wells of a 24-well plate and cultured under conditions of 5% CO2 and 37° C. After the cells were proliferated to an extent that they covered almost the entire surface of each well, the medium was changed to an SFM-101 medium (product of Nissui Seiyaku K.K.) containing 1% FCS. […] Furthermore, 10 μl (end concentration: 200 pg/ml) of a solution of IL-1βand 10 μl (end concentration: 10 μM) of arachidonic acid were added to conduct culture for 22 hours under conditions of 5% CO2 and 37° C. After the culture, the supernatant liquid thereof was collected and filtered through a membrane filter (pore size: 0.22 μm, MILLIPORE), thereby determining the amount of prostaglandin E2 in the filtrate in accordance with the enzyme immunoassay. The effect of each test agent on the production of prostaglandin E2 by the human synovial cells was determined by the average value of the amounts of prostaglandin E2 produced, which were obtained by repeating the above process 3 times, and the amount of prostaglandin E2 produced by using DMSO in place of the test agent to conduct the same treatment as described above.

[3] = read-out: Percent inhibition of cyclooxygenase 1

Percent inhibition of cyclooxygenase 2 (cyclooxygenase 2; 0.01 μM): 21% | Percent inhibition of cyclooxygenase 2 (cyclooxygenase 2; 0.1 μM): 18% | Percent inhibition of cyclooxygenase 2 (cyclooxygenase 2; 1 μM): 22% | Percent inhibition of cyclooxygenase 2 (cyclooxygenase 2; 10 μM): 82% | Percent inhibition of cyclooxygenase 2 (cyclooxygenase 2; 100 μM): 90% | Percent inhibition of cyclooxygenase 1 (cyclooxygenase 1; 0.01 μM): 0% | Percent inhibition of cyclooxygenase 1 (cyclooxygenase 1; 0.1 μM): 0% | Percent inhibition of cyclooxygenase 1 (cyclooxygenase 1; 1 μM): 13% | Percent inhibition of cyclooxygenase 1 (cyclooxygenase 1; 10 μM): 3% | Percent inhibition of cyclooxygenase 1 (cyclooxygenase 1; 100 μM): 15%
SMILES: O=C(O)Cc1ccccc1Nc1c(Cl)cc(O)cc1Cl [4'-Hydroxydiclofenac, 2-(2,6-dichloro-4-hydroxyanilino)phenylacetic acid]
Inhibitory effect on cyclooxygenase 2 (in words) (cyclooxygenase 2; 0.01-100 μM): only an inhibitory effect on the cyclooxygenase 2 activity is recognized | Inhibitory effect on cyclooxygenase 1 (in words) (cyclooxygenase 1): no inhibitory effect on cyclooxygenase 1 is recognized | inhibitory effect on the production of thromboxane B2 (in words) [1]: clearly weak compared with indomethacin | inhibition at 0.001 µM [1]: -25% | inhibition at 0.01 µM [1]: -25% | inhibition at 0.1 µM [1]: 0% | inhibition at 1 µM [1]: 7% | inhibition at 10 µM [1]: 15% | inhibition at 100 µM [1]: 77% | inhibitory effect on prostaglandin E2 (in words) ([2]; 0.001-100 μM, compared with indomethacin): almost comparable to indomethacin | inhibition at 0.001 µM [2]: -3% | inhibition at 0.01 µM [2]: 0% | inhibition at 0.1 µM [2]: 35% | inhibition at 1 µM [2]: 100% | inhibition at 10 µM [2]: 100% | inhibition at 100 µM [2]: 100%

SMILES: O=C(O)Cc1ccccc1Nc1c(Cl)cccc1Cl [Diclofenac]
Inhibitory effect on cyclooxygenase 1 (in words) (cyclooxygenase 1): Inhibitory effects on cyclooxygenase 1 and cyclooxygenase 2 are recognized | inhibition at 0.01 µM (cyclooxygenase 1; [3]): 25% | inhibition at 0.1 µM (cyclooxygenase 1; [3]): 25% | inhibition at 1 µM (cyclooxygenase 1; [3]): 38% | inhibition at 10 µM (cyclooxygenase 1; [3]): 57% | inhibition at 100 µM (cyclooxygenase 1; [3]): 87% | inhibitory effect on the production of thromboxane B2 (in words) [1]: an inhibitory effect on the production of thromboxane B2 is recognized | inhibition at 0.001 µM [1]: 46% | inhibition at 0.01 µM [1]: 70% | inhibition at 0.1 µM [1]: 68% | inhibition at 1 µM [1]: 77% | inhibition at 10 µM [1]: 93% | inhibition at 100 µM [1]: 99% | inhibition at 0.001 µM [2]: 14% | inhibition at 0.01 µM [2]: 61% | inhibition at 0.1 µM [2]: 99% | inhibition at 1 µM [2]: 100% | inhibition at 10 µM [2]: 100% | inhibition at 100 µM [2]: 100%

SMILES: COc1ccc2c(c1)c(CC(=O)O)c(C)n2C(=O)c1ccc(Cl)cc1 [Indomethacin]
inhibitory effect on the production of thromboxane B2 (in words) [1]: an inhibitory effect on the production of thromboxane B2 is recognized | inhibition at 0.001 µM [1]: 2% | inhibition at 0.01 µM [1]: 50% | inhibition at 0.1 µM [1]: 76% | inhibition at 1 µM [1]: 77% | inhibition at 10 µM [1]: 78% | inhibition at 100 µM [1]: 78% | inhibition at 0.001 µM [2]: -3% | inhibition at 0.01 µM [2]: 5% | inhibition at 0.1 µM [2]: 62% | inhibition at 1 µM [2]: 100% | inhibition at 10 µM [2]: 100% | inhibition at 100 µM [2]: 100%

Source: patent US5958978A, “Specific cyclooxygenase 2 inhibitor and anti-inflammatory agent” (Kabushiki Kaisha Yakult Honsha, priority 1995, dated 1999)
